Source: patent US4603142A, “Cholesterol lowering method of use” (Wisconsin Alumni Research Foundation, priority 1984, dated 1986)

Target: T1, β-hydroxy-β-methylglutaryl-CoA reductase (Homo sapiens, UniProt P04035)
T1 construct: ISOLATED HEPATOCYTES OF CHICKEN; endogenous in cells; host or cells: isolated hepatocytes of chicken
T1 sequence (P04035 1-888): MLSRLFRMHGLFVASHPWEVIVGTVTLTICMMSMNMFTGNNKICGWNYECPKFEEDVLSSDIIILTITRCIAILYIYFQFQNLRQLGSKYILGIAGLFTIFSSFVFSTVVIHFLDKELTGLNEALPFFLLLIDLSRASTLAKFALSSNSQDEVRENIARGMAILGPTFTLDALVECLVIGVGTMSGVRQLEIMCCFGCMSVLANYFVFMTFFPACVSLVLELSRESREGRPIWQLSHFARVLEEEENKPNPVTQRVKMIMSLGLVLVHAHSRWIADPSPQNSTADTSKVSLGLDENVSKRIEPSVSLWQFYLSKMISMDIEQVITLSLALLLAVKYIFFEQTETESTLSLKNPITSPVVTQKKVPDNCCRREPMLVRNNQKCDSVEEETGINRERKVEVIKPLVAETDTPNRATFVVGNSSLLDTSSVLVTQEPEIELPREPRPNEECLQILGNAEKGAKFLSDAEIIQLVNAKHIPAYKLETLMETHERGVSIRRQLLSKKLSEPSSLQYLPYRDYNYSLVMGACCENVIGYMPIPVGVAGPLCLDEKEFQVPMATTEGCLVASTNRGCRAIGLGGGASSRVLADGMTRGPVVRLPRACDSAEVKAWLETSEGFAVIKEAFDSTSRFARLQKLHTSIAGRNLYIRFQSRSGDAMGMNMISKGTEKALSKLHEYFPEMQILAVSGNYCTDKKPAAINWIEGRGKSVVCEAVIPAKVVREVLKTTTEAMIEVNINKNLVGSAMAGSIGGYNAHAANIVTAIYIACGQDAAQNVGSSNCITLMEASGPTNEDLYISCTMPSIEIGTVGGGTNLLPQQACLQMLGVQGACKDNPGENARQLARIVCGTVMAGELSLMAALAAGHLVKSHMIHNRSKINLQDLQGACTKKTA
Assay: In vitro HMG-CoA reductase activity in isolated hepatocytes of chicken
Assay type: cell-based
Details: incubation 15 minutes; for β-Hydroxy-β Methylglutaryl-CoA Reductase: means of two replicates
Description: These observed effects on lipogensis and cholesterogenesis could be attributed to the chemical constituents of HPBF, but clearly could not be attributed to the water insoluble plant fibers because they were not present in the latter feeding trials. Moreover, these effects were also obtained in vitro using isolated hepatocytes from chickens and rats. […] Proc. 42:1973 (Abstr.)]. Conditions for the in vitro evaluation of the solvent extracts have been described [Qureshi AA et al. (1983): Inhibition of cholesterol and fatty acid biosynthesis in liver enzymes and chicken hepatocytes by polar fractions of garlic, Lipids 18:343-348].
Cholesterol inhibitor I was re-chromatographed by HPLC and the UV absorption spectrum obtained. Maximum absorption occurred at 292 nm. This purified fraction was used for high resolution mass spectrometric analysis. Several scans were made using ionization temperatures from 90-180 degrees Centigrade to increase the possibility of detecting impurities. The high resolution mass spectrometric analysis and measurements of different peaks gave a molecular ion peak at m/e 424 and main peaks at m/e 385, 205 and 165 corresponding to C29 H44 O2 (molecular formula) C25 H36 O2, C13 H17 O2 and C10 H13 O2 moieties, respectively, which are characteristic fragmentation moieties for d-alpha-tocotrienol. Lemon grass oil is a rich source of d-alpha-tocotrienol. This product and cholesterol inhibitor I at 20 ppm were compared with the petroleum ether soluble fraction of HPBF (20% equivalent HPBF) in a group of older male White Leghorn chickens (Table 3). The results shown on Table 3 confirm those previously recorded for petroleum ether solubles of HPBF and cholestrol inhibitor I. In a final experiment, the effects of cholestrol inhibitor I and lemon grass oil on hepatocyte HMG Co-A reductase and FAS activities were tested. Both components tested in the concentration range 5-100 microgram/ml, produced a concentration-dependent suppression of HMG Co-A reductase and concentration-dependent enhancement of FAS activity (Table 4).
^1 Tenweek-old female chickens were fed standard cornsoy diet. They
were fasted for 48 hrs. and refed 72 hrs. prior to the preparation of
^2 Incubation period was 15 minutes. Values represent means of two
replicates within incubation set.
^3 pmoles of mevalonic acid synthesized per minute per mg of […]

- β-Hydroxy-β Methylglutaryl-CoA Reductase (5 μg/ml): 45 pmoles of mevalonic acid synth
- β-Hydroxy-β Methylglutaryl-CoA Reductase (10 μg/ml): 40 pmoles of mevalonic acid synth
- β-Hydroxy-β Methylglutaryl-CoA Reductase (15 μg/ml): 31 pmoles of mevalonic acid synth
- β-Hydroxy-β Methylglutaryl-CoA Reductase (20 μg/ml): 30 pmoles of mevalonic acid synth
- β-Hydroxy-β Methylglutaryl-CoA Reductase (25 μg/ml): 28 pmoles of mevalonic acid synth
- β-Hydroxy-β Methylglutaryl-CoA Reductase (50 μg/ml): 22 pmoles of mevalonic acid synth
- β-Hydroxy-β Methylglutaryl-CoA Reductase (100 μg/ml): 23 pmoles of mevalonic acid synth
- remaining activity at 5 µg/mL (0.25 h, 5 μg/ml, read-out: β-Hydroxy-β Methylglutaryl-CoA Reductase, percentage of control): 87%
- remaining activity at 10 µg/mL (0.25 h, 10 μg/ml, read-out: β-Hydroxy-β Methylglutaryl-CoA Reductase, percentage of control): 77%
- remaining activity at 15 µg/mL (0.25 h, 15 μg/ml, read-out: β-Hydroxy-β Methylglutaryl-CoA Reductase, percentage of control): 60%
- remaining activity at 20 µg/mL (0.25 h, 20 μg/ml, read-out: β-Hydroxy-β Methylglutaryl-CoA Reductase, percentage of control): 57%
- remaining activity at 25 µg/mL (0.25 h, 25 μg/ml, read-out: β-Hydroxy-β Methylglutaryl-CoA Reductase, percentage of control): 54%
- remaining activity at 50 µg/mL (0.25 h, 50 μg/ml, read-out: β-Hydroxy-β Methylglutaryl-CoA Reductase, percentage of control): 42%
- remaining activity at 100 µg/mL (0.25 h, 100 μg/ml, read-out: β-Hydroxy-β Methylglutaryl-CoA Reductase, percentage of control): 44%
SMILES: CC(C)=CCC/C(C)=C/CC/C(C)=C/CC[C@]1(C)CCc2c(C)c(O)c(C)c(C)c2O1 [Cholesterol inhibitor I, 2,5,7,8-tetramethyl-2 (4,8, 12-trimethyltrideca-3,7, 11-trienyl)chroman-6-ol]
